# Reference: publication PMC6268327 (2012)
# Key:
# [1] = tested on: p53 DNA (P1 promoter fragment duplex) (DNA, duplex) CCTCCTCCCCAACTCC/GGAGTTGGGGAGGAGG; assay: fluorescence quenching titration (double-log plot); details: Tris-HCl buffer 100 mM (no metal cations given); 100 mM Tris-HCl, pH 7.4; 298 K; 1 μM compound; double-log fit, apparent
# [2] = tested on: C-myc DNA (NHE III1 promoter fragment duplex) (DNA, duplex) GGGAGGGTGGGGAAGG/CCTTCCCCACCCTCCC; assay: fluorescence quenching titration (double-log plot); details: Tris-HCl buffer 100 mM (no metal cations given); 100 mM Tris-HCl, pH 7.4; 298 K; 1 μM compound; double-log fit, apparent
Kb [1] [L/mol],Kb [2] [L/mol],SMILES
1.16e+06,404000,Oc1ccc2ccc3cccc4ccc1c2c34
2040,1390,OCCCCc1ccc2ccc3cccc4ccc1c2c34
